Tests used:
rat hepatocytes = assay: In vitro metabolic stability in rat hepatocytes (calculated Fmax); type: in vitro ADME, Han Wistar rats; details: 1 μM, calculated maximal oral bioavailability
Experimental: Determination of in Vitro Metabolic Stability in Rat Hepatocytes (Including Calculation of Hepatic in Vivo Blood Clearance (CL))
Hepatocytes from Han Wistar rats were isolated via a 2-step perfusion method. After perfusion, the liver was carefully removed from the rat: the liver capsule was opened and the hepatocytes were gently shaken out into a Petri dish with ice-cold Williams' medium E (WME). The resulting cell suspension was filtered through sterile gaze in 50 mL falcon tubes and centrifuged at 50×g for 3 min at room temperature. The cell pellet was resuspended in 30 mL WME and centrifuged through a Percoll® gradient for 2 times at 100×g. The hepatocytes were washed again with WME and resuspended in medium containing 5% FCS. Cell viability was determined by trypan blue exclusion. […] The test compound was added to a final concentration of 1 μM. […] Samples were frozen at −20° C. overnight, subsequently centrifuged for 15 minutes at 3000 rpm and the supernatant was analyzed with an Agilent 1200 HPLC-system with LCMS/MS detection.
(§1) The half-life of a test compound was determined from the concentration-time plot. From the half-life (kel: slope of concentration-time plot; half-life=In2/kel) the intrinsic clearances were calculated. Together with the additional parameters liver blood flow, amount of liver cells in vivo and in vitro.
(§2) Metabolic instability is often the main clearance mechanism of xenobiotica leading to a high CL and low bioavailability which may eventually result in a short half-life and a low exposure after oral administration. Thus, reducing the susceptibility of metabolic degradation usually leads to a more favourable pharmacokinetic profile. When using liver microsomes as incubation matrix main phase I metabolic reactions, typically oxidoreductive reactions by cytochrome P450 enzymes and flavin mono-oxygenases (FMO) and hydrolytic reactions by esterases/amidases/epoxidhydrolases, are described. When the incubation of the test compound is performed in a hepatocyte matrix all potential hepatic metabolic processes (phase I and phase II) are covered.

[1] = In vitro metabolic stability in liver microsomes (calculated Fmax); type: in vitro ADME, human; details: 1 μM, calculated maximal oral bioavailability
Experimental: In Vitro Metabolic Stability Assays Determination of in vitro Metabolic Stability in Microsomes (Including Calculation of Hepatic in vivo Blood Clearance (CL) and of Maximal Oral Bioavailability (Fmax))
The metabolic assay was started shortly afterwards by adding the test compound to the incubation at a final volume of 1 mL. Organic solvent in the incubations was limited to ≤0.01% dimethylsulfoxide (DMSO) and ≤1% acetonitrile. […] Samples were frozen at −20° C. overnight, subsequently centrifuged for 15 minutes at 3000 rpm and the supernatant was analyzed with an Agilent 1200 HPLC-system with LCMS/MS detection.
as §1, with “specific” for “amount of”, “weight and microsomal protein content the hepatic” for “cells”, “vivo blood clearance (CL)” for “vivo”, “the maximal oral bioavailability (Fmax) were calculated for the different species.” for “in vitro.”
as §2

human P2X3 receptor = human P2X3 receptor (Homo sapiens (Human), UniProt P56373); assay: Intracellular calcium measurement (FLIPR, Fluo-4) of antagonist activity at human P2X3 receptor; type: cell-based; details: human P2X3, FLIPR Fluo-4 calcium, agonist α,β-Me-ATP at EC80; read-out: hP2X3 IC50
human P2X3 receptor, sequence (P56373 whole entry): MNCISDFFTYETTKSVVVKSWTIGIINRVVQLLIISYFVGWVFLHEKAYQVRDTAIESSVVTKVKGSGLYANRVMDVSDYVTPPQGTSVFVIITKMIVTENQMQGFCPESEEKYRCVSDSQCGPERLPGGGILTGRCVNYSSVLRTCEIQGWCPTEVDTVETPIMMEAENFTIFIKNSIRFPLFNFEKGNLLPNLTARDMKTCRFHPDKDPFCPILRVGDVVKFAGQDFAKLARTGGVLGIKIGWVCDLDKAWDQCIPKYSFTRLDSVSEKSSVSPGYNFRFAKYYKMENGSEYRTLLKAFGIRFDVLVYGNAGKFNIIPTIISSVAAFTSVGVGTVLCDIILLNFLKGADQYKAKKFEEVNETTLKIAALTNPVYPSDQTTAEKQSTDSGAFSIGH
Experimental: (§3) Intracellular Calcium Measurement to Assess Antagonist Activity at Human P2X3 and Human P2X2/3 Receptors
(§4) A fluorescent imaging plate reader (FLEX/FLIPR station; Molecular Devices) was used to monitor intracellular calcium levels using the calcium-chelating dye Fluo-4 (Molecular Probes). […] Cells expressing purinergic receptors P2X3 (human) or P2X2/3 (human) were plated at a density of 15,000 cells/well in collagen-coated 384-well plates approximately 20 hours before beginning the assay. […] The test compound was added in a volume of 5 μl and allowed to incubate for 30 min at 37° C. The final assay DMSO concentration is 1%.
(§5) The agonist, α,β-Me-ATP, was added in a volume of 20 μl at a concentration representing the EC80 value. The fluorescence was measured for an interval of 90 sec at 2 sec intervals and analyzed based on the increase in peak relative fluorescence units (RFU) compared to the basal fluorescence. Peak fluorescence was used to determine the response to agonist obtained at each concentration of test compound by the following equation: % Response=100*(RFU(test compound)−RFU(control))/(RFU(DMSO)−RFU(control))
(§6) The Examples were tested in triplicates per plate and mean values were plotted in Excel XLFit to determine IC5o values at the human P2X3 and human P2X2/3 receptors, percentage of maximal inhibition and the Hill coefficients.

human P2X2/3 receptor = human P2X2/3 receptor (Homo sapiens (Human), UniProt P56373+Q9UBL9); assay: Intracellular calcium measurement (FLIPR, Fluo-4) of antagonist activity at human P2X2/3 receptor; type: cell-based; details: human P2X2/3, FLIPR Fluo-4 calcium, agonist α,β-Me-ATP at EC80; read-out: hP2X2/3 IC50
human P2X2/3 receptor, sequence (P56373 whole entry): as above
human P2X2/3 receptor, sequence (Q9UBL9 whole entry): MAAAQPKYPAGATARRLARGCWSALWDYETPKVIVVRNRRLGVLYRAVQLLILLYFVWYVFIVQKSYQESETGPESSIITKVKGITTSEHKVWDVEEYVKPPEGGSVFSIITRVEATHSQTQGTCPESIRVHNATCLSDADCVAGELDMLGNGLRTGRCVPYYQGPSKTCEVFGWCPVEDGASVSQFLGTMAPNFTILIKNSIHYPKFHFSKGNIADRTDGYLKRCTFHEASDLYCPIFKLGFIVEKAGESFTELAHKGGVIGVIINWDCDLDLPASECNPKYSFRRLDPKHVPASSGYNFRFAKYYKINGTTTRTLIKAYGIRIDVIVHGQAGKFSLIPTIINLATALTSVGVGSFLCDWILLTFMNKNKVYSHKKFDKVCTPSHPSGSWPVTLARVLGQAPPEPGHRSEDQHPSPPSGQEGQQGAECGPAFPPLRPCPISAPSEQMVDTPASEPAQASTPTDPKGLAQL
Experimental: as §3, §4, §5, §6

vaginal hyperalgesia = assay: Rat dyspareunia model (visceromotor response to vaginal distension); type: in vivo, Sprague Dawley rats; details: 15 mg/kg oral b.i.d. during 2 weeks
From the text: The visceromotor response (VMR) to vaginal distension was used in conscious animals as an objective measure of vaginal sensitivity. Briefly, animals in estrus phase were surgically implanted with biopsies of left uterine horn (3×3 mm) around alternate cascade mesenteric arteries that supply the small intestine (4 pieces) and on the wall of the distal colon (2 pieces). To measure VMR response, 2 Teflon-coated wire electrodes were sutured in the external oblique abdominal muscle, and tunneled subcutaneously to be exteriorized at the base of the neck for future access. On the day of VMR assessment, a lubricated small balloon (1 cm length) was inserted into the mid-vaginal canal. […] The electrodes were connected to an amplifier (Animal Bio Amp, ADlnstruments), and the abdominal electromyographic signal was recorded using a data acquisition system (PowerLab, ADlnstruments) for off-line analysis using LabChart version 7. The number of abdominal muscle contractions was counted manually for each 0.1 ml distension step, as an index of vaginal pain. […] All data were expressed as mean±standard deviation (s.d.), for the number (n) of measured rats per group. […] Planned comparison of means (matched-volume versus vehicle) was performed using a Bonferroni post hoc test, provided that a main effect was detected. […]

[2] = clinical PhII trials; attributed to blockade of P2X2/3 channels; cited from earlier work

SMILES	Rat hepatocyte Fmax (rat hepatocytes) [%]	Human liver microsome Fmax [1] [%]	further results
CCc1cnc(-c2cc(OC[C@H]3CCCO3)cc(C(=O)N[C@H](C)c3cnc(C)cn3)c2)s1 [Example 277, 3-(5-ethyl-1,3-thiazol-2-yl)-N-[(1R)-1-(5-methypyrazin-2-yl)ethyl]-5-[(3S)-tetrahydrofuran-3-ylmethoxy]benzamide]	–	–	IC50 (human P2X3 receptor): 6 nM; IC50 (human P2X2/3 receptor): 96 nM
Cc1cnc(-c2cc(OC(C)C(C)O)cc(C(=O)N[C@H](C)c3ccc(C(F)(F)F)nn3)c2)s1 (single isomer, unassigned) [Example 183]	43	74	–
CCc1cnc(-c2cc(OC[C@H]3CN(C)CCO3)cc(C(=O)N[C@H](C)c3ccc(C(F)(F)F)nn3)c2)s1 [Example 419, 3-(5-ethyl-1,3-thiazol-2-yl)-5-{[(2R)-4-methyl-morpholin-2-yl]methoxy}-N-{(1R)-1-[6-(trifluoromethyl)pyridazin-3-yl]ethyl} benzamide]	51	74	–
Cc1cnc(-c2cc(OC(C)C(C)O)cc(C(=O)N[C@H](C)c3cnc(C(F)(F)F)nc3)c2)s1 (single isomer, unassigned) [Example 163]	53	100	–
COc1cc(C(C)C)c(Oc2cnc(N)nc2N)cc1S(N)(=O)=O [AF-219]	–	–	taste disturbances in treated subjects [2]: taste disturbances

More lines, main results first:

Rat hepatocyte Fmax (rat hepatocytes) [%]	Human liver microsome Fmax [1] [%]	SMILES	further results
56	67	Cc1cnc(-c2cc(O[C@H]3CCOC3)cc(C(=O)N[C@H](C)c3cnc(C(F)(F)F)nc3)c2)s1 [Example 26, 3-(5-methyl-1,3-thiazol-2-yl)-5-[(3S)-tetrahydrofuran-3-yloxy]-N-{(1R)-1-[2-(trifluoromethyl)pyrimidin-5-yl]ethyl}benzamide]	–
52	57	Cc1cnc(-c2cc(O[C@@H]3CCOC3)cc(C(=O)N[C@H](C)c3cnc(C(F)(F)F)nc3)c2)s1 [Example 11, 3-(5-Methyl-1,3-thiazol-2-yl)-5-[(3R)-tetrahydrofuran-3-yloxy]-N-{(1R)-1-[2-(trifluoromethyl)pyrimidin-5-yl]ethyl}benzamide]	Vaginal hyperalgesia compared to vehicle-treated animals (vaginal hyperalgesia): decreased vaginal hyperalgesia
52	94	Cc1cnc(-c2cc(OC(C)C(C)O)cc(C(=O)N[C@H](C)c3cnc(C(F)(F)F)nc3)c2)s1 (single isomer, unassigned) [Example 339]	–
64	90	Cc1cnc(-c2cc(OC(C)C(C)O)cc(C(=O)N[C@H](C)c3cnc(C(F)(F)F)nc3)c2)s1 (single isomer, unassigned) [Example 340]	–

— patent publication US10202369B2, “1,3-thiazol-2-yl substituted benzamides” (BAYER AKTIENGESELLSCHAFT, priority 2014, dated 2019)
